Structures can show the parent of a compound that is named as a salt. Where two headings read alike, the source gives them in different places.

For test [1], the system named is contracted rat aorta. Briefly: In vitro rat aorta assay: relaxation of aorta strips contracted with phenylephrine. Type of test: cell-based. The settings on record: read-out: EC50 (mean): concentration at which residual contraction is 50% of maximum. The procedure:
Strips of thoracial rat aortae (without aortic arch, helically cut; length 1-1.5 cm; width about 2 mm) were place in an organ bath [20 ml; Krebs Ringer medium bubbled with O2 /CO2 (95/5%) at 37° C.]. A resting tension of 0.5 g was applied and the preparations were equilibrated during 100 min (fresh buffer solution every 20 min). The strips were isotonically contracted with 10^-7 M phenylephrine.
Drug-induced relaxation was tested at increasing concentration (half log steps), till maximal or full relaxation (corresponding to basal precontraction value of organ length) had been reached.
Responses were calculated as change in organ length relatively to maximal displacement by contraction, EC50 values corresponding to the drug concentration at which residual contraction is 50% of maximum.

The test system of test [2] is arterial blood pressure. Briefly: Anesthetized rabbit experiments: arterial blood pressure and heart rate after infusion. Also: key: Inactive: No decrease or decrease less than 5%; Active: Decrease between 5 and 40%; Very Active: Decrease greater than 40%. Type of test: in vivo, New Zealand white rabbits. As to the method: In the anesthetized rabbits, the decrease of arterial blood pressure and the effect on the heart rate after infusion of the test compounds was determined.
New Zealand white rabbits (2.5-3 kg) were anesthetized (30 mg×kg^-1 pentobarbitone, i.v., supplemental doses as needed). Tracheotomy was performed, and an intra-tracheal cannula was inserted. No artificial ventilation was applied and body temperature was maintained at 37°-38° C.
Left ventricular pressure (LVP) was measured (Millar Mikro-Tip catheter via the right carotid artery with transducer in the left ventricle). The LVP signal was differentiated electronically to obtain the rate of change of LVP (LV dP/dt). The heart rate (HR) was derived from the LVP pulse signal. The jugular vein was cannulated for infusion of the test compounds. Aortic blood pressure (SAP and DAP) was monitored (Gould-Statham pressure transducer) by inserting a polyethylene catheter filled with heparin (50 IU×ml^-1) through the femoral artery into the abdominal aorta. Heparin (150 IU×kg^-1, i.v.) was administered to prevent blood clotting.
After completion of surgical procedures, the rabbits were allowed to recover for 15 minutes before drug administration was started.
Drugs were infused at constant rate (0.5 ml×min^-1) for 10 minutes at various doses, resulting in a typical dose range of 2.0, 20.0 and 200 μg×kg^-1 ×min^-1 (2.5 kg rabbit).
Due to poor solubility, 1 mg×ml^-1 solutions of all the compounds tested were prepared in Intralipid® 10%, containing 10% (v/v) dimethyl sulfoxide (DMSO). […] At the infusion of lower doses, the 1 mg×ml^-1 stock solutions were diluted with Intralipid® 10%.
The presented data are based on the effects obtained at the end of the 10 min infusion period at the highest dose tested (150-200 μg×kg^-1 ×min^-1). The indicated ratings are referring to the effects (decrease, defined as percentage of basal value before infusion of the drug) on arterial blood pressure as follows: […]

The mark [3] stands for this setting: rat aorta strips contracted with 10^-7 M phenylephrine.
The mark [4] stands for this setting: anesthetized rabbit, end of 10 min infusion at highest dose tested (150-200 μg×kg^-1×min^-1), decrease as percentage of basal value.

Consider `CCOC(=O)C1CSC(c2ccc(OCC(=O)NCCO[N+](=O)[O-])c(OC)c2)N1` (centres unmarked) [Example XI, 4-Ethoxycarbonyl-2-{[3-methoxy-4-(2-nitroxyethyl)aminocarbonylmethoxy]phenyl}-thiazolidine hydrochloride], for which, in test [1] (setting [3]), the EC50 turned out to be 270 nM.
As for `O=C(O)C1CSC(c2ccccc2OC[C@H]2CC[C@H](CO[N+](=O)[O-])CC2)N1` (relative stereo) [Example XXIX, 4-Carboxy-2-(2-{[4-nitroxymethyl-(trans)-cyclohexyl]methoxy}phenyl)thiazolidine], the EC50 in test [1] (setting [3]) is 21 nM. For the same compound, the “Activity with regard to the lowering of blood pressure” value (“Activity with regard to the lowering” below) in test [2] (setting [4]) is listed as “Active”.
In the same order, the values of `CC(COc1ccccc1C1NC(C(=O)O)CS1)O[N+](=O)[O-]` (centres unmarked) [XXXVI, 4-Carboxy-2-[2-(2-nitroxypropoxy)phenyl]thiazolidine] are 48 nM and “Active”.
Take `CC(=O)N1C(C(=O)O)CSC1c1ccccc1OCCO[N+](=O)[O-]` (centres unmarked) [Example XVII, N-acetyl-4-carboxy-2-[2-(2-nitroxyethoxy)phenyl]thiazolidine]: the EC50 in test [1] (setting [3]) stood at 720 nM.
Still for that read-out and setting: the value for `O=C(O)C1CSC(c2ccccc2OCCCCO[N+](=O)[O-])N1` (centres unmarked) [XXXIV, 4-Carboxy-2-[2-(4-nitroxybutoxy)phenyl]thiazolidine] was 17 nM.
Turning to `O=C(O)C1CSC(c2cc(Cl)ccc2OCCO[N+](=O)[O-])N1` (centres unmarked) [Example XXV, 4-Carboxy-2-[5-chloro-2-(2-nitroxyethoxy)phenyl]thiazolidine], the EC50 in test [1] (setting [3]) turned out to be 20 nM. The “Activity with regard to the lowering” value in test [2] (setting [4]) is recorded as “Active”.
As to `CCOc1cccc(C2NC(C(=O)O)CS2)c1OCCO[N+](=O)[O-]` (centres unmarked) [Example XII, 4-Carboxy-2-[3-ethoxy-2-(2-nitroxyethoxy)phenyl]thiazolidine], the EC50 in test [1] (setting [3]) was determined as 650 nM.
For `O=C(O)C1CSC(c2cc([N+](=O)[O-])ccc2OCCO[N+](=O)[O-])N1` (centres unmarked) [Example XXI, 4-Carboxy-2-[5-nitro-2-(2-nitroxyethoxy)phenyl]thiazolidine], the EC50 in test [1] (Rattus norvegicus) turned out to be 25 nM. For the same compound, the “Activity with regard to the lowering” value in test [2] (rabbit, in vivo) is on record as “Active”.
As to `CC(C)(COc1ccccc1C1NC(C(=O)O)CS1)CO[N+](=O)[O-]` (centres unmarked) [Example XXX, 4-Carboxy-2-[2-(2,2-dimethyl-3-nitroxypropoxy)phenyl]thiazolidine], in test [1] (setting [3]), the EC50 came to 102 nM. Moreover, the “Activity with regard to the lowering” value in test [2] (setting [4]) was “Active”.
As to `O=C(COc1ccc(C2NC(C(=O)O)CS2)cc1)NCCO[N+](=O)[O-]` (centres unmarked) [Example XXIV, 4-Carboxy-2-{4-[(2-nitroxyethyl)aminocarbonylmethoxy]phenyl}thiazolidine], the EC50 in test [1] (setting [3]) turned out to be 900 nM.
Turning to `O=C(O)C1CSC(c2ccc(OCCO[N+](=O)[O-])cc2)N1` (centres unmarked) [Example XIII, 4-Carboxy-2-[4-(2-nitroxyethoxy)phenyl]thiazolidine], the EC50 in test [1] (setting [3]) turned out to be 22 nM. Moreover, the “Activity with regard to the lowering” value in test [2] (setting [4]) was “Active”.
Turning to `CCCCC1SCC(C(=O)OC2COC3C(O[N+](=O)[O-])COC23)N1S(=O)(=O)c1ccc(C)cc1` (centres unmarked) [Example I, 2-Butyl-N-(4-methylbenzenesulphonyl)-4-[(5-nitroxyisosorbide)carbonyl]thiazolidine], the EC50 in test [1] (setting [3]) was 750 nM.
On the same count and under the same terms, the value for `CC(C)(CO[N+](=O)[O-])C(=O)N1C(C(=O)O)CSC1c1ccccc1` (centres unmarked) [XXXIII, 4-Carboxyl-N-(2,2-dimethyl-3-nitroxypropionyl)-2-phenylthiazolidine] was 2770 nM.
Consider `COc1ccc(OCCO[N+](=O)[O-])c(C2NC(C(=O)O)CS2)c1` (centres unmarked) [Example XV, 4-Carboxy-2-[5-methoxy-2-(2-nitroxyethoxy)phenyl]thiazolidine], for which the EC50 in test [1] (setting [3]) came to 7 nM. Besides, in test [2] (setting [4]), the “Activity with regard to the lowering” value is listed as “Active”.
Take `COc1cccc(C2NC(C(=O)O)CS2)c1OCCO[N+](=O)[O-]` (centres unmarked) [Example XIV, 4-Carboxyl-2-[3-methoxy-2-(2-nitroxyethoxy)phenyl]thiazolidine]: the EC50 in test [1] (setting [3]) was found to be 230 nM.
Same read-out and setting: the value for `CCCCC1SCC(C(=O)OC2COC3C(O[N+](=O)[O-])COC23)N1C(=O)c1ccccc1` (centres unmarked) [Example II, N-benzoyl-4-[(5-nitroxyisosorbide)carbonyl]-2-butylthiazolidine] was 740 nM.
Take `CC(=O)N1C(C(=O)NCCO[N+](=O)[O-])CSC1c1ccccc1` (centres unmarked) [Example VIII, N-acetyl-2-phenyl-4-[(2-nitroxyethyl)aminocarbonyl]thiazolidine]: the EC50 in test [1] (setting [3]) stood at 1880 nM.
Still for that read-out and setting: in the case of `O=C(NCCO[N+](=O)[O-])c1ccc(C2NC(C(=O)O)CS2)cc1` (centres unmarked) [Example V, 4-Carboxy-2-{4-[(2-nitroxyethyl)aminocarbonyl]phenyl}thiazolidine] it was 330 nM.
For the compound `CC1(C)SC(c2ccccc2OCCO[N+](=O)[O-])N[C@H]1C(=O)O` (some centres unmarked) [XXVI, 4-Carboxy-5,5-dimethyl-2-[(2-nitroxyethoxy)phenyl]thiazolidine], in test [1] (setting [3]), the EC50 stood at 57 nM. Also, in test [2] (setting [4]), the “Activity with regard to the lowering” value is reported as “Active”.
As for `O=C(O)C1CSC(c2ccccc2OCCO[N+](=O)[O-])N1` (centres unmarked) [Example XVI, 4-Carboxy-2-[2-(2-nitroxyethoxy)phenyl]thiazolidine], the “Activity with regard to the lowering” value in test [2] (setting [4]) was “Active”.
Take `COc1cc(C2NC(C(=O)O)CS2)cc(Br)c1OCCO[N+](=O)[O-]` (centres unmarked) [XXIII, 2-[3-Bromo-5-methoxy-4-(2-nitroxyethoxy)phenyl]-4-carboxythiazolidine]: the EC50 in test [1] (setting [3]) was 820 nM.
Still for that read-out and setting: in the case of `CC(=O)N1C(C(=O)NCCO[N+](=O)[O-])CSC1c1ccccc1C(=O)O` (centres unmarked) [Example VI, N-acetyl-2-(2-carboxyphenyl)-4-[(2-nitroxyethyl)aminocarbonyl]thiazolidine] it was 1620 nM; in that of “2-Butyl-5,5-dimethyl-N-(4-methylbenzenesulphonyl)-4-[(5-nitroxyisosorbide)carbonyl]thiazolidine [Example IV]”, 9500 nM.
Turning to `O=[N+]([O-])OCCOc1ccccc1C1NCCS1` (centres unmarked) [XXVII, 2-[(2-Nitroxyethoxy)phenyl]thiazolidine oxalate hydrate], in test [1] (setting [3]), the EC50 is 6.7 nM. Moreover, in test [2] (setting [4]), the “Activity with regard to the lowering” value is reported as “Active”.
For the compound `O=C(O)C1CSC(c2ccccc2OCCCO[N+](=O)[O-])N1` (centres unmarked) [Example XXXII, 4-Carboxy-2-[2-(3-nitroxypropoxy)phenyl]thiazolidine], the EC50 in test [1] (setting [3]) was 37 nM.
Same read-out and setting: the value for `COc1cc(C2NC(C(=O)O)CS2)ccc1OCC(=O)NCCO[N+](=O)[O-]` (centres unmarked) [Example X, 4-Carboxy-2{3-methoxy-4-[(2-nitroxyethyl)aminocarbonylmethoxy]phenyl}thiazolidine] was 390 nM.
In the case of `CC(=O)N1C(CCc2ccccc2)SCC1C(=O)OC[C@H]1CC[C@H](CO[N+](=O)[O-])CC1` (some centres unmarked) [Example XXII, N-acetyl-2-(2-phenylethyl)-4-[(4-nitroxymethylcyclohexyl)methoxycarbonyl]thiazolidine], in test [1] (setting [3]), the EC50 worked out at 23 nM. In addition, in test [2] (setting [4]), the “Activity with regard to the lowering” value is recorded as “Active”.
The corresponding values for “N-benzoyl-2-butyl-5,5-dimethyl-4-[(5-nitroxyisosorbide)carbonyl]thiazolidine [Example III]” are 98 nM and “Active”.
As for `CCOC(=O)C1CSC(c2ccc(C(=O)NCCO[N+](=O)[O-])cc2)N1` (centres unmarked) [Example VII, 4-Ethoxycarbonyl-2-{4-[(2-nitroxyethyl)aminocarbonyl]phenyl}thiazolidine×HCl], the EC50 in test [1] (setting [3]) worked out at 20 nM.
The same measure, in the same setting: the value for `O=C(O)C1CSC(c2cccc(OCCO[N+](=O)[O-])c2)N1` (centres unmarked) [Example XVIII, 4-Carboxy-2-[3-(2-nitroxyethoxy)phenyl]thiazolidine] was 47 nM.
The same measure, in the same setting: the value for `O=[N+]([O-])OCCOc1cccc(C2NCCS2)c1` (centres unmarked) [XIX, 2-[3-(2-Nitroxyethoxy)phenyl]thiazolidine×HCl] was 9.7 nM.
`O=C(COc1ccccc1C1NC(C(=O)O)CS1)NCCO[N+](=O)[O-]` (centres unmarked) [Example IX, 4-Carboxy-2-{2-[(2-nitroxyethyl)aminocarbonylmethoxyl]phenyl}thiazolidine]: the EC50 in test [1] (setting [3]) is 700 nM.
On the same count and under the same terms, in the case of “4-Carboxy-2-[3-4-(2-nitroxyethoxy)phenyl]thiazolidine [Example XXXV]” it was 54 nM.

The values above are taken from patent US5385922A, “Thiazolidine derivatives” (Cedona Pharmaceuticals B.V., priority 1990, dated 1995).
